{"source": "patent US20090311176A1", "about": "“2-Arylpyrazolo[L,5-Alpha] Pyrimidin-3-YL Acetamide Derivatives as Ligands for Translocator Protein (18 Kda)” (The University of Sydney, priority 2006, published 2009)", "key": {"[1]": {"assay": "In-vivo stability of [^18F]DPA-714 in rat plasma (TLC)", "details": "2 h post tracer injection"}, "TSPO [2]": {"tested_on": "TSPO", "assay": "In vivo [^18F]DPA-714 baboon PET studies (baseline, blocking, displacement)", "set-up": "species or system Papio hamadryas baboon", "procedure": "This dual modality device has a fully-3D PET scanner with 24 crystal rings and a dual slice CT scanner in the same gantry. It yields a reconstructed PET spatial resolution of 6.3 mm full width at half maximum (FWHM) at the centre of the field of view. The baboon was initially anaesthetized with ketamine (8 mg/kg, im). Anaesthesia was maintained with the use of an iv infusion of ketamine (Parnell Laboratory, Australia) in saline at a dose rate of 0.2 mg ketamine/kg/min. The baboon also received MgSO4 (2 mL iv) given over half an hour plus atropine (1 mg im) plus maxalon (5 mg im). The head of the baboon was immobilised with plastic tape to minimise motion artifacts. A CT scan of the head was completed prior to radioligand injection. Acquisition of the PET data in list mode was commenced just prior to radioligand injection and continued for a period of 60 min. […] At the conclusion of each study the list mode data were sorted into a dynamic scan comprising 54 frames (20×30 s, 30×60 s and 4×300 s). […] The radioligand uptake was converted to units of percent injected dose per volume of brain tissue (% dose/mL) and plotted against time.\nDecay corrected time activity curves representing the variation in ligand concentration vs. time were constructed from selected slices for regions of interest over the thalamus, cerebellum, striaturn, cortex, skull and whole brain. After the list-mode acquisition, a whole body PET-CT scan was performed, 2 minutes at each of the six bed positions, to determine other sites of radioligand uptake."}, "[3]": {"molecular_target": "T1, peripheral benzodiazepine receptor (PBR) (Rattus norvegicus, UniProt P16257)", "T1 construct": "from tissue; host or cells: living rat (brain, PET and ex vivo biodistribution)", "assay": "PET in rat model of HSV encephalitis", "format": "in vivo", "details": "olfactory and retrograde brain areas where HSV-1 accumulates", "source_text": "Male Wistar rats were intranasally inoculated with the herpes simplex virus type-1(10^7 PFU in 1001 PBS) or PBS (control). Within a week following inoculation, replicating virus migrated into the brain and induced neuroinflammation."}, "[4]": {"assay": "Log D determined via HPLC", "format": "physicochemical"}, "CBR": {"tested_on": "CBR", "assay": "CBR binding with [^3H]Ro 15-1788, rat brain tissue", "details": "for affinity for the CBR (in words): [^3H]Ro 15-1788, rat brain tissue; for Ki: [^3H]Ro 15-1788 radioligand, rat brain tissue"}, "Sprague-Dawley rat": {"tested_on": "Sprague-Dawley rat", "assay": "Single intravenous dose toxicity study in the rat", "format": "in vivo", "description": "The study involved 2 groups of […] SPF Sprague-Dawley rats (each of 5 males and 5 females), 7 weeks old and weighing between 193.1 g and 215 g for males and between 160.6 g and 180.1 g for females on the day of randomisation. Animals were purchased from Charles River Laboratories France (Domaine des Oncins—69592 L'Arbresle Cedex, France).\nAnimals were weighed on the day of randomisation, on D7, D14 and D15 (day of necropsy).\nGeneral observations were performed on D1, 60 minutes±30 minutes after dosing, again between 3 and 4 hours post-dose and then once a day for 14 days. Functional and neurobehavioural tests were also assessed on D1, 60 minutes±30 minutes after dosing and then on D7 and D 14. Mortality was recorded twice a day for 14 days. All animals surviving at the end of the 14-day period were submitted to gross necropsy."}, "Rat glioma C6 cells": {"tested_on": "Rat glioma C6 cells", "assay": "Steroid biosynthesis (pregnenolone) assay in C6 cells", "format": "cell-based", "details": "40 μM", "description": "All compounds were used at the same concentration (40 μM); at the end of the incubation period (2 h), the amount of pregnenolone was quantified by radio immunoassay (RIA). The values are the mean of at least three determinations.\nRat glioma C6 cells were cultured in Dulbecco's modified Eagle's medium supplemented with 10% FBS, 2 mM L-glutamine, 100 units/mL penicillin and 100 μg/mL streptomycin. Cultures were maintained in a humidified atmosphere of 5% CO2/95% air at 37° C.\nC6 cells were seeded in 24-well plates at a density of ˜1×10^6 cells/well in a final volume of 1 ml. Prior to measurement of pregnenolone production the cells were washed three times with a simple salts medium consisting of 140 mM NaCl, 5 mM KCl, 1.8 mM CaCl2, 1 mM MgSO4, 10 mM glucose, 10 mM HEPES/NaOH, pH 7.4, plus 0.1% BSA. During experiments, cells were incubated with this simple salts medium in an air incubator at 37° C. […] At the end of the incubation period (2 h) the cell medium was retained and centrifuged at 1500 g for 10 min. The amount of pregnenolone secreted into the medium was quantified by radio immunoassay (RIA), using an antibody obtained from ICN Biochemical Inc., Calif., USA, under the conditions recommended by the supplier."}, "TSPO [5]": {"molecular_target": "T2, TSPO (Rattus norvegicus, UniProt P16257)", "T2 construct": "from tissue; host or cells: living rat; peripheral tissues and brain regions", "assay": "Ex vivo biodistribution of [^18F]DPA-714 in QA lesioned rats", "details": "pre-injection 15 min before radioligand; PK 11195 5 mg/kg, DPA-714 and DPA-713 1 mg/kg", "procedure": "Adult male Wistar rats weighing 300-320 g (Janvier, Le Genest-St-Isle, France) were used for ex vivo experiments.\nQuinolonic acid (QA) lesions: Rats were anesthetised with isoflurane (4%, 500 mL/min), placed on a stereotaxic apparatus (Stoelting, Phymep, Paris, France) and were maintained under isoflurane 2% (500 mL/min) during surgery. The skull was exposed and small holes were made with use of a dental drill. […] A cannula (gauge 25, Hamilton, Massy, France) was inserted and a solution of QA (300 nmol in 2 μL phosphate buffer, pH 7.4) was infused at a flow rate of 0.5 μL/min. The syringe was left in place for 4 minutes before being removed to avoid backflow of QA. The bone was filled in with wax and the scalp was then sutured.\nFor peripheral tissue, results were expressed as the ratio (% ID/g tissue)/(% ID/g blood)±SEM. For brain, results were expressed as the ratio (% ID/g cerebral region)/(% ID/g cerebellum)±SEM. Student t test was performed when the number of data was ≧5. Statistic significance was considered for p<0.05."}, "[6]": {"tested_on": "peripheral benzodiazepine receptor", "details": "monkey occipital cortex, PET; cited from earlier work"}}}
{"smiles": "CCN(CC)C(=O)Cc1c(-c2ccc(OCC[18F])cc2)nn2c(C)cc(C)nc12", "note": "[[^18F]DPA-714]", "values": [{"measurement": "radioactivity in rat plasma consisting of the parent compound", "setting": "[1]", "result": "78±1", "unit": "%"}, {"measurement": "uptake in the baboon skull", "setting": "TSPO [2]; baseline PET study", "result": "No uptake"}, {"measurement": "blood brain barrier penetration / accumulation in the brain", "setting": "TSPO [2]; baseline PET study, 100 MBq i.v., baboon", "result": "capable of penetrating the blood brain barrier with considerable accumulation in the brain"}, {"measurement": "time to maximum uptake in whole baboon brain", "setting": "TSPO [2]; baseline study, time activity curve", "result": "within ten minutes"}, {"measurement": "whole body uptake in the heart, adrenals and salivary glands", "setting": "TSPO [2]; whole body PET after brain imaging", "result": "high uptake"}]}
{"smiles": "CCC(C)N([11CH3])C(=O)c1cc2ccccc2c(-c2ccccc2Cl)n1", "note": "(stereo not drawn) [[^11C]PK11195]", "values": [{"measurement": "uptake in HSE rats versus control (in words)", "setting": "[3]", "result": "not significantly increased"}]}
{"smiles": "CCN(CC)C(=O)Cc1c(-c2ccc(OCCF)cc2)nn2c(C)cc(C)nc12", "note": "[DPA-714, N,N-Diethyl-2-{2-[4-(2-fluoro-ethoxy)-phenyl]-5,7-dimethyl-pyrazolo[1,5-a]pyrimidin-3-yl}-acetamide]", "values": [{"measurement": "chromatographic logD", "setting": "[4]", "result": 2.44}, {"measurement": "affinity for the CBR (in words)", "setting": "CBR", "result": "negligible"}, {"measurement": "Ki", "setting": "CBR", "result": "> 10000", "unit": "nM"}, {"measurement": "toxicity signs overall", "setting": "Sprague-Dawley rat; administered once i.v. at 5 mL/kg, batch No. 140306", "result": "did not induce any toxicity sign"}, {"measurement": "LD50", "setting": "Sprague-Dawley rat; rat, in vivo, iv", "result": "higher than 5 mL/kg"}, {"measurement": "displacement of [^18F]DPA-714 from whole baboon brain", "setting": "TSPO [2]; cold DPA-714 1 mg/kg at 20 minutes post injection", "result": "complete washout of the radioligand"}, {"measurement": "displacement of [^18F]DPA-714 binding in peripheral regions", "setting": "TSPO [2]; cold DPA-714 at 20 minutes after radioligand, data not shown", "result": "complete displacement"}, {"measurement": "pregnenolone synthesis above baseline", "setting": "Rat glioma C6 cells; 2 h, C6 glioma rat cells, RIA", "result": 80, "unit": "%"}, {"measurement": "activity at stimulating neurosteroid synthesis compared with PK 11195", "setting": "Rat glioma C6 cells; same assay", "result": "twice more active"}]}
{"smiles": "CCC(C)N(C)C(=O)c1cc2ccccc2c(-c2ccccc2Cl)n1", "note": "(stereo not drawn) [PK 11195]", "values": [{"measurement": "inhibition of [^18F]DPA-714 uptake in peripheral tissues by pre-treatment", "setting": "TSPO [5]", "result": "significant inhibition of radioligand uptake in the heart, bone and liver but not in the adrenals and muscle"}, {"measurement": "chromatographic logD", "setting": "[4]", "result": 3.35}, {"measurement": "affinity for the CBR (in words)", "setting": "CBR", "result": "negligible"}, {"measurement": "Ki", "setting": "CBR", "result": "> 10000", "unit": "nM"}]}
{"smiles": "CCN(CC)C(=O)Cc1c(-c2ccc(OC)cc2)nn2c(C)cc(C)nc12", "note": "[DPA-713, N,N-Diethyl-2-[2-(4-methoxy-phenyl)-5,7-dimethylpyrazolo[1,5-a]pyrimidin-3-yl]-acetamide]", "values": [{"measurement": "chromatographic logD", "setting": "[4]", "result": 2.44}, {"measurement": "affinity for the CBR (in words)", "setting": "CBR", "result": "negligible"}, {"measurement": "Ki", "setting": "CBR", "result": "> 10000", "unit": "nM"}, {"measurement": "effect on steroidogenesis (in words)", "setting": "Rat glioma C6 cells; 2 h, C6 glioma rat cells", "result": "no effect"}]}
{"smiles": "COc1ccc(O[11CH3])c(CN(C(C)=O)c2cc(F)ccc2Oc2ccccc2)c1", "note": "[[^11C]DAA1106]", "values": [{"measurement": "binding compared with [^11C](R)-PK 11195", "setting": "[6]", "result": "four times greater"}]}
